# From US12410323B2, “Potent antifouling agents albofungins target multiple fouling organisms” (The Hong Kong University of Science and Technology, priority 2021, dated 2025)
# Where two headings read alike, the source gives them in different places.
# Legend:
# [1] = test system: barnacle Amphibalanus amphitrite larvae; test: Anti-larval settlement bioassay, barnacle; format: in vivo; conditions: for EC50: Amphibalanus amphitrite; for settlement rate compared with control group (0.1% DMSO in FSW): after 48 h of incubation; for LC50/EC50: ratio used to evaluate toxicity of the antifoulant
# Protocol: (§1) A. amphitrite adults were collected from Pak Sha Wan Pier, Hong Kong (22° 38′N, 114° 28′E) and after keeping in the dark for 24 h, a light source was used to stimulate the larval release. Within 1 h, the larvae were collected and cultured in 0.22 μm filtered seawater with a daily diet of Chaetoceros gracilis Schutt at 1×10^6 cells mL^−1 until their growth into cyprids, which were used for the anti-larval settlement bioassay. The bryozoan B. neritina adults were collected from a fish farm in Pak Shek Kok, Hong Kong (22° 43′N, 114° 20′E) and kept in flow-through seawater for no more than 7 days before use. The larvae were released within 30 minutes before the bioassay as described (Xu et al., 2010). The bioassay was conducted in a 24-well polystyrene tissue culture plate with 15-20 larvae in each well. 0.1% of DMSO in filtered seawater (FSW), and 0.625, 1.25, 2.5, 5, 10, 20, and 40 μg mL^−1 albofungin concentrations were tested in triplicate. In each well, 1 mL of FSW containing 15-20 larvae and 1 mL of albofungin solution of different concentrations. The plate was kept for 48 h at 25° C. (bryozoan B. neritina larvae were kept for 3 h). The wells with 0.1% of DMSO in FSW served as a negative control, and butenolide was used as a positive control. The number of attached, swimming, and dead larvae were counted under an Olympus optical microscope (Olympus Corporation, Tokyo, Japan). The settlement rate was calculated as the ratio of settled larvae to the total number of larvae in each well, and the death rate was calculated as the ratio of dead or missing larvae to the total number of larvae in each well. Half maximal effective concentration (EC50) and half lethal concentration (LC50) were determined for each compound, and the ratio of LC50/EC50 was used to evaluate the toxicity of the antifoulant. Experiments were performed in triplicate. Data were analyzed by one-way ANOVA to detect significant differences in the larval settlement, and SD was calculated by GraphPad Prism 9.
# [2] = Anti-larval settlement bioassay, barnacle; format: in vivo, Amphibalanus amphitrite; conditions: Amphibalanus amphitrite (barnacle), cyprid larvae, in vivo; larval mortality, 48 h at 25° C.
# Protocol: as §1
# [3] = test system: MCCC 1A04899 Sulfitobacter pontiacus; test: Bacterial growth inhibition (antibacterial assay, MIC); format: cell-based
# Protocol: (§2) The antibacterial activities of albofungins were tested following specific protocols (She et al., 2020). Marine broth was used as the test medium for the marine bacteria, and the MHB broth was used as the test medium for the pathogenic bacteria. The plate was kept at 22° C. or 30° C. overnight, and the minimum inhibitory concentration (MIC) is the lowest concentration that the drug prevents the visible growth of bacteria. The bacteria which have successfully formed biofilms were further used for antibiofilm formation assays. Different concentrations of albofungin compounds were added to each well. Biofilm formation was assessed through the MTT assay as previously described. […] Data were analyzed using one-way ANOVA to detect significant differences and standard deviation (SD) was calculated using GraphPad Prism 9. All the assays were performed in triplicate.
# Staphylococcus sp. Z01 [4] = test: as above; format: cell-based; conditions: marine broth, overnight
# Protocol: as §2
# [5] = test system: MCCC 1A11723 Psychrobacter nivimaris; test: as above; format: cell-based; conditions: marine broth, overnight
# Protocol: as §2
# [6] = test system: MCCC 1A01390 Pseudomonas pachastrellae; test: as above; format: cell-based; conditions: Halopseudomonas pachastrellae; marine broth, overnight
# Protocol: as §2
# Micrococcus sp. Z02 [7] = test: as above; format: cell-based; conditions: marine broth, overnight
# Protocol: as §2
# Staphylococcus aureus 04 [8] = test: as above; format: cell-based; conditions: marine broth, overnight
# Protocol: as §2
# [9] = test system: MCCC 1A04899 Sulfitobacter pontiacus; test: Biofilm inhibition assay (MTT), marine bacteria; format: cell-based; conditions: lowest concentration inhibiting 90% of biofilm formation; 24 h
# Protocol: (§3) The ability of the bacteria to form static biofilms was tested. Marine bacteria were cultured overnight in marine broth at 22° C. with 220 rpm agitation (Pseudomonas pachastrellae MCCC 1A01390, Sulfitobacter pontiacus MCCC 1A04899 and Psychrobacter nivimaris MCCC 1A 11723) and at 30° C. (Staphylococcus aureus B04, Staphylococcus sp. Z01 and Micrococcus sp. Z02) and then diluted to 10^7 CFU mL^−1 in marine broth supplemented with 1% of glucose; pathogenic bacteria was cultured overnight in LB broth with 1% glucose with 220 rpm at 37° C. Afterwards, 200 μL of the diluted solution were added to each well of a 96-well plate (Corning Inc., New York, USA) and was then incubated at 22° C. or 30° C. for 24 h. The culture medium, planktonic cells and loosely adhered bacteria were removed by dual washing with a phosphate-buffered saline (PBS) buffer, and the firmly attached bacteria were incubated with 20 μL of MTT (5 mg mL^−1) at 37° C. for 3 h. The supernatant was discarded, and formazan was dissolved in 150 μL of DMSO. Absorbance was measured using the Multiskan™ FC microplate photometer (Thermo Fisher Scientific, Waltham, USA) under 570 nm, and MRSA ATCC 43300 was used as a positive control. All the experiments were performed in triplicate.
# as §2
# Staphylococcus sp. Z01 [10] = test: Biofilm inhibition assay (MTT), marine bacteria; format: cell-based; conditions: lowest concentration inhibiting 90% of biofilm formation; 24 h
# Protocol: as §3, §2
# [11] = test system: MCCC 1A11723 Psychrobacter nivimaris; test: Biofilm inhibition assay (MTT), marine bacteria; format: cell-based; conditions: lowest concentration inhibiting 90% of biofilm formation; 24 h
# Protocol: as §3, §2
# [12] = test system: MCCC 1A01390 Pseudomonas pachastrellae; test: Biofilm inhibition assay (MTT), marine bacteria; format: cell-based; conditions: lowest concentration inhibiting 90% of biofilm formation; 24 h
# Protocol: as §3, §2
# Micrococcus sp. Z02 [13] = test: Biofilm inhibition assay (MTT), marine bacteria; format: cell-based; conditions: lowest concentration inhibiting 90% of biofilm formation; 24 h
# Protocol: as §3, §2
# Staphylococcus aureus 04 [14] = test: Biofilm inhibition assay (MTT), marine bacteria; format: cell-based; conditions: lowest concentration inhibiting 90% of biofilm formation; 24 h
# Protocol: as §3, §2
# MRSA ATCC 43300 = test: Biofilm inhibition assay (MTT), pathogenic bacteria; format: cell-based, Staphylococcus aureus; conditions: lowest concentration inhibiting 90% of biofilm formation
# Protocol: as §3
# as §2, with “All the assays were performed in triplicate.” left out
# [15] = test system: Enterobacter cloacae NRRL-B-425; test: as above; format: cell-based; conditions: lowest concentration inhibiting 90% of biofilm formation
# Protocol: as §3, §2
# [16] = test system: Acinetobacter baumannii B-65371; test: as above; format: cell-based; conditions: lowest concentration inhibiting 90% of biofilm formation
# Protocol: as §3, §2
# [17] = Release rate of albofungin from coatings into artificial seawater (HPLC); format: physicochemical; conditions: for highest release rate: first day, artificial seawater
# Protocol: Around 1 g of albofungin compound was isolated, purified and analyzed using HPLC to guarantee over 95% purity. Albofungin-based hydrolysable and degradable copolymer coating was prepared as follows: methyl methacrylate (MMA) and tributylsilyl methacrylate (TBSM) copolymer (PMSMO) was synthesized via radical ring-opening polymerization (Zhou et al., 2015). For 5 wt % of albofungin-based coating, 0.95 g of PMSMO and 0.05 g of albofungin were dissolved in xylene and tetrahydrofuran (v:v=1:2) and mixed vigorously at room temperature. The solution was then coated on the PVC panels (4×7 cm^2) and dried at room temperature for 7 days (Ma et al., 2017). Other coatings with different albofungin concentrations (10 and 15 wt %) were prepared using the same procedure. The coating with PMSMO only was used as a […]. Each concentration was prepared for three biological replicates. The field test was conducted from March to April 2021 in a fish farm at Yung Shue O, Hong Kong (22° 24′N, 114° 21′E), which was heavily fouled all year round. The PVC panel was submerged into seawater at a depth of 0.5 meters for 2 months, retrieved, washed with seawater, and photographed. The area covered by biofoulers was calculated by Image J (Fiji-2.2.0) (Schindelin, et al., 2012). One-way ANOVA was used to compare the albofungin-coated panels and the control panels. The release rate of albofungin under static conditions was determined by measuring the compound concentration with HPLC. Albofungin-based coatings were applied onto a PVC panel (20×75 mm^2) and submerged in artificial seawater (ASW). After 7 days, the panel was transferred to an individual container with 100 mL of ASW. After 24 h of immersion, 10 mL of the seawater was taken out of the container and extracted with the same volume of ethyl acetate three times. After drying under the SpeedVac vacuum concentrators, the extracts were dissolved in 100 μL of methanol and then subjected to HPLC using a reversed-phase system (Waters 2695) with a Phenomenex Luna C18 column connected to a UV detector at 300 nm. The unique UV absorption of albofungin and retention time were determined, with the amount being calculated from the established standard curves using peak areas plotted against known standard quantities.
# Escherichia coli k12 = test: Biofilm inhibition assay (MTT), pathogenic bacteria; format: cell-based; conditions: lowest concentration inhibiting 90% of biofilm formation
# Protocol: as §3, §2
# [18] = test system: bryozoan Bugula neritina larvae; test: Anti-larval settlement bioassay, bryozoan; format: in vivo
# Protocol: as §1
# [19] = Anti-larval settlement bioassay, bryozoan; format: in vivo, Bugula neritina; conditions: Bugula neritina (bryozoan), larvae, in vivo; larval mortality, 3 h
# Protocol: as §1
# [20] = larval settlement, 48 h at 25° C., read-out: EC50
Compound,"EC50 [1, 20]",settlement rate compared with control group (0.1% DMSO in FSW) [1],LC50 at 48 h [2],MIC [3],MIC (Staphylococcus sp. Z01 [4]),MIC [5],MIC [6],MIC (Micrococcus sp. Z02 [7]),MIC (Staphylococcus aureus 04 [8]),MBIC90 [9],MBIC90 (Staphylococcus sp. Z01 [10]),MBIC90 [11],MBIC90 [12],MBIC90 (Micrococcus sp. Z02 [13]),MBIC90 (Staphylococcus aureus 04 [14]),MBIC90 (MRSA ATCC 43300),MBIC90 [15],MBIC90 [16],EC50 ([1]; 48 h),LC50/EC50 [1],also measured
"CO[C@@H]1CC[C@H](O)c2c1oc1c3c4c(c(O)c1c2=O)-c1c(cc2c(Cl)c(C)n(N)c(=O)c2c1O)C[C@H]4OCO3 [Chloroalbofungin (3), chloroalbofungin]",35 µg/mL,did not cause significant difference,> 100 µg/mL,> 20 µg/mL,0.0016 µg/mL,> 20 µg/mL,> 20 µg/mL,0.05 µg/mL,0.0125 µg/mL,10 to 20 µg/mL,100 to 200 ng/mL,>20 µg/mL,>20 µg/mL,250 to 500 ng/mL,250 to 500 ng/mL,–,–,–,–,–,–
"CO[C@@H]1CC[C@H](O)c2c1oc1c3c4c(c(O)c1c2=O)-c1c(cc2cc(C)[nH]c(=O)c2c1O)C[C@H]4OCO3 [Chrestoxanthone A (4), chrestoxanthone A]",> 36.8 µg/mL,did not cause significant difference,> 100 µg/mL,–,0.0016 µg/mL,> 20 µg/mL,> 20 µg/mL,0.0125 µg/mL,0.0125 µg/mL,10 to 20 µg/mL,5 to 10 ng/mL,>20 µg/mL,>20 µg/mL,125 to 250 ng/mL,62.5 to 125 ng/mL,0.13 to 0.25 µg/mL,>10 µg/mL,1.25 to 2.5 µg/mL,–,–,"MIC ([3]; marine broth, overnight, read-out: MIC): 20 µg/mL"
"CO[C@@H]1CC[C@H](O)c2c1oc1c3c4c(c(O)c1c2=O)-c1c(cc2cc(C)n(N)c(=O)c2c1O)C[C@H]4OCO3 [Albofungin (1), albofungin]",–,significantly lower,> 100 µg/mL,0.032 µg/mL,0.0008 µg/mL,> 20 µg/mL,0.5 µg/mL,0.0032 µg/mL,0.0032 µg/mL,0.13 to 0.25 µg/mL,0.63 to 1.25 ng/mL,10 to 20 µg/mL,0.25 to 0.50 µg/mL,31.25 to 62.50 ng/mL,15.63 to 31.25 ng/mL,0.01 to 0.03 µg/mL,1.25 to 2.5 µg/mL,0.06 to 0.13 µg/mL,1.6 µg/mL,62.5,"larval settlement rate ([1]; 2.5 μg mL^−1, 48 h): 33% (±5.3%); antifouling activity against larval settlement compared with butenolide ([1]; according to the EC50 value): equivalent antifouling activity; highest release rate ([17]; 5 wt % albofungin coating): 0.86 μg day-1 cm^−2; highest release rate ([17]; 10 wt % albofungin coating): 1.1 μg day-1 cm^−2; release rate decreased to ([17]; 15, 10 and 5 wt % coatings, time-dependent, within 35 days): approximately 0.08 μg day-1 cm^−2; highest release rate ([17]; 15 wt % albofungin coating): 1.4 μg day-1 cm^−2; MBIC90 (Escherichia coli k12): 0.63 to 1.25 µg/mL; larval settlement ([18]; 2.5 μg mL^−1, 3 h): 44% (±9.0%); EC50 ([18]; Bugula neritina, larval settlement, 3 h): 1.9 µg/mL; lethal effects ([18]; highest concentration tested): no lethal effects; LC50/EC50 ([18]; ratio used to evaluate toxicity of the antifoulant): 52.6; LC50 at 3 h [19]: > 100 µg/mL"
"Cc1cc2cc3c(c(O)c2c(=O)n1N)-c1c2c(c4oc5c(c(=O)c4c1O)[C@@H](O)CC[C@H]5O)OCO[C@@H]2C3 [Albofungin A (2), albofungin A]",–,significantly lower,> 100 µg/mL,0.008 µg/mL,0.0008 µg/mL,> 20 µg/mL,0.12 µg/mL,0.0064 µg/mL,0.0064 µg/mL,0.02 to 0.03 µg/mL,0.63 to 1.25 ng/mL,>20 µg/mL,0.02 to 0.03 µg/mL,62.5 to 125 ng/mL,15.63 to 31.25 ng/mL,0.01 to 0.03 µg/mL,0.63 to 1.25 µg/mL,0.13 to 0.25 µg/mL,12.2 µg/mL,8.2,"larval settlement rate ([1]; 20 μg mL^−1, 48 h): 17% (±12.7%); MBIC90 (Escherichia coli k12): 0.31 to 0.63 µg/mL"
